Here are results for 27 compounds from patent publication US9630922B2, “3-spiro-7-hydroxamic acid tetralins as HDAC inhibitors” (Forma Therapeutics, Inc., priority 2015, dated 2017).

The assay concerns the target T1, HDAC6 (Homo sapiens, UniProt Q9UBN7).
T1 construct: Full length human recombinant HDAC6 protein was expressed in baculoviral system; made in house; host or cells: baculoviral system
T1 sequence (Q9UBN7 1-1215): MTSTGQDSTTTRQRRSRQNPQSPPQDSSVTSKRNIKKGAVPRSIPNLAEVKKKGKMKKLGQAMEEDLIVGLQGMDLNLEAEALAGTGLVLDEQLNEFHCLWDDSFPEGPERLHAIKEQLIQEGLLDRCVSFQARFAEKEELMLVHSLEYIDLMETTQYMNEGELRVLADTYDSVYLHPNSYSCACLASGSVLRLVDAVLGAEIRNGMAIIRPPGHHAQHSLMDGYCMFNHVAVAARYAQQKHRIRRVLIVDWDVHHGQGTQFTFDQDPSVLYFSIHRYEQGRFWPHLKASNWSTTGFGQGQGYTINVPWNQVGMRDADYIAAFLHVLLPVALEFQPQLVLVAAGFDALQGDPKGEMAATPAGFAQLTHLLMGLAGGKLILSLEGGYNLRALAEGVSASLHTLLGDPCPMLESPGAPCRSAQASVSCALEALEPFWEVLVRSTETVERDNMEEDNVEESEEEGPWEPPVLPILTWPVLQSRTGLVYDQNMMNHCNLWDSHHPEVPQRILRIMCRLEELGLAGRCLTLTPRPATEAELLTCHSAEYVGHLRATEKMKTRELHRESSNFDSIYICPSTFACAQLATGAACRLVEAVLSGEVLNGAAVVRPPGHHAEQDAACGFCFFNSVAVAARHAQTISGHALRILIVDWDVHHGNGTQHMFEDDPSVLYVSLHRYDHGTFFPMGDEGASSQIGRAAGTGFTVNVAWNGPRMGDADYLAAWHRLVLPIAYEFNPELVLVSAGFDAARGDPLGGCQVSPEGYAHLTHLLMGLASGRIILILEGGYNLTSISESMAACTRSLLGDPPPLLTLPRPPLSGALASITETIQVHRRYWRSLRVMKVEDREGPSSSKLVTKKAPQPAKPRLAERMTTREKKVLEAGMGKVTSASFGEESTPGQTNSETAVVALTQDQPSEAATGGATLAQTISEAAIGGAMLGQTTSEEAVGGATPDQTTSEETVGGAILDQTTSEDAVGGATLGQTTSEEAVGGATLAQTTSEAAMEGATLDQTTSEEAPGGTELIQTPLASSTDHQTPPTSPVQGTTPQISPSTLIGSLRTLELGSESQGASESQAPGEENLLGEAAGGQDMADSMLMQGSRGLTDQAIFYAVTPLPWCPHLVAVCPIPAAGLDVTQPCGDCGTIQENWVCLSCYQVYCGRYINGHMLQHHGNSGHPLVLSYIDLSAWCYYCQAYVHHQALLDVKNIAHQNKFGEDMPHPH
The experiment in a line: In vitro Histone Deacetylase Assay (enzymatic HDAC6 electrophoretic mobility shift assay). As to conditions: full length human recombinant HDAC6, 1 nM enzyme, 2 μM peptide substrate RHKK(Ac)-NH2, 25° C.; read-out: HDAC6 activity range. It is filed as biochemical. The gist of the method: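 Deacetylation was read by microfluidic mobility shift as product/(substrate+product) peak ratio and normalised to 0% and 100% inhibition controls. Reactions used 1 nM baculovirus-expressed full-length human HDAC6 and 2 μM labelled RHKK(Ac)-NH2 in pH 7.5 HEPES buffer with 1% DMSO at 25 °C. IC50 was from 4-parameter fits of 12 concentrations.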
With `O=C(NO)c1ccc2c(c1)CC[C@]1(CCN(C3CC3)C1=O)C2` [Compound I-109, (R)-1′-cyclopropyl-N-hydroxy-2′-oxo-3,4-dihydro-1H-spiro[naphthalene-2,3′-pyrrolidine]-6-carboxamide], the IC50 was no more than 0.1 µM. As to `O=C(NO)c1ccc2c(c1)CC[C@]1(CCN(c3cncc(F)c3)C1=O)C2` [Compound I-110, (R)-1′-(5-fluoropyridin-3-yl)-N-hydroxy-2′-oxo-3,4-dihydro-1H-spiro[naphthalene-2,3′-pyrrolidine]-6-carboxamide], the IC50 is no more than 0.1 µM. As for `COc1ccccc1N1CC[C@]2(CCc3cc(C(=O)NO)ccc3C2)C1=O` [Compound I-111], the figure is no more than 0.1 µM; as for `N#Cc1cccc(N2CC[C@]3(CCc4cc(C(=O)NO)ccc4C3)C2=O)c1` [Compound I-112, (R)-1′-(3-cyanophenyl)-N-hydroxy-2′-oxo-3,4-dihydro-1H-spiro[naphthalene-2,3′-pyrrolidine]-6-carboxamide], no more than 0.1 µM. Take `O=C(NO)c1ccc2c(c1)CC[C@]1(CCN(c3cccc(F)c3)C1=O)C2` [Compound I-113, (R)-1′-(3-fluorophenyl)-N-hydroxy-2′-oxo-3,4-dihydro-1H-spiro[naphthalene-2,3′-pyrrolidine]-6-carboxamide]: the IC50 is no more than 0.1 µM. As for `COc1ccc(N2CC[C@]3(CCc4cc(C(=O)NO)ccc4C3)C2=O)cn1` [Compound I-114, (R)-N-hydroxy-1′-(6-methoxypyridin-3-yl)-2′-oxo-3,4-dihydro-1H-spiro[naphthalene-2,3′-pyrrolidine]-6-carboxamide], the IC50 is no more than 0.1 µM. The figure for `COc1ccccc1N1CC[C@@]2(CCc3cc(C(=O)NO)ccc3C2)C1=O` [Compound I-115, (S)-N-hydroxy-1′-(2-methoxyphenyl)-2′-oxo-3,4-dihydro-1H-spiro[naphthalene-2,3′-pyrrolidine]-6-carboxamide] is no more than 0.1 µM. With `N#Cc1cccc(N2CC[C@@]3(CCc4cc(C(=O)NO)ccc4C3)C2=O)c1` [Compound I-116, (S)-1′-(3-cyanophenyl)-N-hydroxy-2′-oxo-3,4-dihydro-1H-spiro[naphthalene-2,3′-pyrrolidine]-6-carboxamide], the IC50 is no more than 0.1 µM. Take `O=C(NO)c1ccc2c(c1)CC[C@@]1(CCN(c3cccc(F)c3)C1=O)C2` [Compound I-117, (S)-1′-(3-fluorophenyl)-N-hydroxy-2′-oxo-3,4-dihydro-1H-spiro[naphthalene-2,3′-pyrrolidine]-6-carboxamide]: the IC50 was no more than 0.1 µM. For `COc1ccc(N2CC[C@@]3(CCc4cc(C(=O)NO)ccc4C3)C2=O)cn1` [Compound I-118, (S)-N-hydroxy-1′-(6-methoxypyridin-3-yl)-2′-oxo-3,4-dihydro-1H-spiro[naphthalene-2,3′-pyrrolidine]-6-carboxamide], the IC50 is no more than 0.1 µM.

On to `O=C(NO)c1ccc2c(c1)CC[C@]1(CCN(c3ccc(F)c(F)c3)C1=O)C2` [Compound I-119, (R)-1′-(3,4-difluorophenyl)-N-hydroxy-2′-oxo-3,4-dihydro-1H-spiro[naphthalene-2,3′-pyrrolidine]-6-carboxamide], for which the IC50 was no more than 0.1 µM. With `O=C(NO)c1ccc2c(c1)CC[C@]1(CCN(c3ccc(F)cc3)C1=O)C2` [Compound I-120, (R)-1′-(4-fluorophenyl)-N-hydroxy-2′-oxo-3,4-dihydro-1H-spiro[naphthalene-2,3′-pyrrolidine]-6-carboxamide], the IC50 was no more than 0.1 µM. `O=C(NO)c1ccc2c(c1)CC[C@@]1(CCN(CC3COC3)C1=O)C2` [Compound I-122, (S)-N-hydroxy-1′-(oxetan-3-ylmethyl)-2′-oxo-3,4-dihydro-1H-spiro[naphthalene-2,3′-pyrrolidine]-6-carboxamide]: the IC50 was 0.1 to 0.5 µM.

`O=C(NO)c1ccc2c(c1)CC[C@]1(CCN(c3cccc(F)c3F)C1=O)C2` [Compound I-123, (R)-1′-(2,3-difluorophenyl)-N-hydroxy-2′-oxo-3,4-dihydro-1H-spiro[naphthalene-2,3′-pyrrolidine]-6-carboxamide]: the IC50 was no more than 0.1 µM.

On to `COc1ccc(N2CC[C@]3(CCc4cc(C(=O)NO)ccc4C3)C2=O)cc1` [Compound I-124, (R)-N-hydroxy-1′-(4-methoxyphenyl)-2′-oxo-3,4-dihydro-1H-spiro[naphthalene-2,3′-pyrrolidine]-6-carboxamide], for which the IC50 is no more than 0.1 µM. As to `COc1cccc(N2CC[C@]3(CCc4cc(C(=O)NO)ccc4C3)C2=O)c1F` [Compound I-125, (2R)-1′-(2-fluoro-3-methoxyphenyl)-N-hydroxy-2′-oxo-3,4-dihydro-1H-spiro[naphthalene-2,3′-pyrrolidine]-6-carboxamide], the IC50 was no more than 0.1 µM.

Regarding `COc1cccc(N2CC[C@@]3(CCc4cc(C(=O)NO)ccc4C3)C2=O)c1F` [Compound I-126, (2S)-1′-(2-fluoro-3-methoxyphenyl)-N-hydroxy-2′-oxo-3,4-dihydro-1H-spiro[naphthalene-2,3′-pyrrolidine]-6-carboxamide], the IC50 is no more than 0.1 µM. Take `COc1ccc(N2CC[C@@]3(CCc4cc(C(=O)NO)ccc4C3)C2=O)c(F)c1` [Compound I-127, (2S)-1′-(2-fluoro-4-methoxyphenyl)-N-hydroxy-2′-oxo-3,4-dihydro-1H-spiro[naphthalene-2,3′-pyrrolidine]-6-carboxamide]: the IC50 is no more than 0.1 µM. The figure for `COc1cc(N2CC[C@]3(CCc4cc(C(=O)NO)ccc4C3)C2=O)ccc1F` [Compound I-128, (2R)--(4-fluoro-3-methoxyphenyl)-N-hydroxy-2′-oxo-3,4-dihydro-1H-spiro[naphthalene-2,3′-pyrrolidine]-6-carboxamide] is no more than 0.1 µM; for `COc1cc(N2CC[C@@]3(CCc4cc(C(=O)NO)ccc4C3)C2=O)ccc1F` [Compound I-129, (2S)-1′-(4-fluoro-3-methoxyphenyl)-N-hydroxy-2′-oxo-3,4-dihydro-1H-spiro[naphthalene-2,3′-pyrrolidine]-6-carboxamide] it is no more than 0.1 µM. With `O=C(NO)c1ccc2c(c1)CC[C@@]1(CCN(c3ccc(Cl)cn3)C1=O)C2` [Compound I-130, (S)-1′-(5-chloropyridin-2-yl)-N-hydroxy-2′-oxo-3,4-dihydro-1H-spiro[naphthalene-2,3′-pyrrolidine]-6-carboxamide], the IC50 was no more than 0.1 µM. `Cc1ncccc1N1CC[C@]2(CCc3cc(C(=O)NO)ccc3C2)C1=O` [Compound I-131, (R)-N-hydroxy-1′-(2-methylpyridin-3-yl)-2′-oxo-3,4-dihydro-1H-spiro[naphthalene-2,3′-pyrrolidine]-6-carboxamide]: the IC50 was no more than 0.1 µM. For the compound `Cc1ncccc1N1CC[C@@]2(CCc3cc(C(=O)NO)ccc3C2)C1=O` [Compound I-132, (S)-N-hydroxy-1′-(2-methylpyridin-3-yl)-2′-oxo-3,4-dihydro-1H-spiro[naphthalene-2,3′-pyrrolidine]-6-carboxamide], the IC50 is no more than 0.1 µM.

Consider `Cc1ccc(N2CC[C@]3(CCc4cc(C(=O)NO)ccc4C3)C2=O)cn1` [Compound I-133, (R)-N-hydroxy-1′-(6-methylpyridin-3-yl)-2′-oxo-3,4-dihydro-1H-spiro[naphthalene-2,3′-pyrrolidine]-6-carboxamide], for which the IC50 is no more than 0.1 µM. `Cc1ccc(N2CC[C@@]3(CCc4cc(C(=O)NO)ccc4C3)C2=O)cn1` [Compound I-134, (S)-N-hydroxy-1′-(6-methylpyridin-3-yl)-2′-oxo-3,4-dihydro-1H-spiro[naphthalene-2,3′-pyrrolidine]-6-carboxamide]: the IC50 was no more than 0.1 µM. Consider `Cc1cncc(N2CC[C@]3(CCc4cc(C(=O)NO)ccc4C3)C2=O)c1` [Compound I-135, (R)-N-hydroxy-1′-(5-methylpyridin-3-yl)-2′-oxo-3,4-dihydro-1H-spiro[naphthalene-2,3′-pyrrolidine]-6-carboxamide], for which the IC50 is no more than 0.1 µM. In the case of `Cc1ccncc1N1CC[C@]2(CCc3cc(C(=O)NO)ccc3C2)C1=O` [Compound I-136, (R)-N-hydroxy-1′-(4-methylpyridin-3-yl)-2′-oxo-3,4-dihydro-1H-spiro[naphthalene-2,3′-pyrrolidine]-6-carboxamide], the IC50 is no more than 0.1 µM.
